Data taken from patent US20170217956A1, “AZAINDOLE RETINOIC ACID RECEPTOR-RELATED ORPHAN RECEPTOR MODULATORS AND USES THEREOF” (INNOV17 LLC, priority 2014, published 2017).

What was measured:
Format in all cases: cell-based
Settings in all cases: 72 h; human CD4+ T cells under TH17-polarizing conditions, 3 days, supernatant ELISA, 0.1% DMSO
IL-17A = assay: Human TH17 cytokine inhibition as measured by ELISA (IL-17A)
Protocol: (§1) Peripheral blood mononuclear cells (PBMCs) were sourced from freshly prepared leukocyte enriched plasma (buffy coat) from healthy donors (New York Blood Center). PBMCs were isolated by density gradient centrifugation using Ficoll-Paque™ PLUS (GE Healthcare). Human CD4+ T cells were seeded into 96-well plates (5×10^4 cells/well) and activated with plate-bound anti-human (h)-CD3 antibody and soluble h-aCD28 (both at 1 ug/ml; eBioscience) and differentiated into TH17 cells with 20 ng/mL h-IL-6, 5 ng/mL h-TGF-β1, 10 ng/mL h-IL-23 (eBioscience) and 10 ng/mL IL-1β (Miltenyi Biotec) in serum-free TexMACS Medium (Miltenyi Biotec) supplemented with 1% Penicillin/Streptomycin (Lonza) for 3 days. CD4+ T cells propagated under TH17-polarizing conditions were cultured in the presence or absence of various concentrations of compounds with a final concentration of 0.1% DMSO. Supernatants were collected and stored at −20° C. until assayed for IL-17A, IL-17F and IL-21 levels by “Ready-Set-Go” ELISA kits (eBioscience) as per manufacturer's instructions. Endpoint absorbance was read at 450 nm using a microplate reader (Perkin Elmer).

IL-17F = assay: Human TH17 cytokine inhibition as measured by ELISA (IL-17F)
Protocol: as §1

IL-22 = assay: Human TH17 cytokine inhibition as measured by ELISA (IL-22)
IL-21 = assay: Human TH17 cytokine inhibition as measured by ELISA (IL-21)
Protocol: as §1

IC50 (IL-17A) [µM]	IC50 (IL-17F) [µM]	IC50 (IL-22) [µM]	IC50 (IL-21) [µM]	Compound
< 10	< 10	< 10	< 10	C[C@H]1C[C@H](Cn2ccc3nc(-c4cn[nH]c4)ccc32)CN1C(=O)CCc1ccccc1 (racemic) [Example 40, rac.-trans-1-(4-((5-(1H-pyrazol-4-yl)-1H-pyrrolo[3,2-b]pyridin-1-yl)methyl)-2-methylpyrrolidin-1-yl)-3-phenylpropan-1-one]
< 10	< 10	–	< 10	C[C@@H]1C[C@H](Cn2ccc3nc(-c4cn[nH]c4)ccc32)CN1C(=O)CCc1ccccc1 (racemic) [Example 41, rac.-cis-1-(4-((5-(1H-pyrazol-4-yl)-1H-pyrrolo[3,2-b]pyridin-1-yl)methyl)-2-methylpyrrolidin-1-yl)-3-phenylpropan-1-one]
